In patent publication US20150175556A1, “DIHYDROPYRIMIDIN-2(1H)-ONES AND DIHYDROPYRIMIDIN-2(1H)-THIONES AS INHIBITORS OF SODIUM IODIDE SYMPORTER” (COMMISSARIAT A L'ENERGIE ATOMIQUE ET AUX ENERGIES …, priority 2012, published 2015):
Read-outs that look alike come from different tables or passages of the source.

What was measured:
[1] = target: T1, sodium iodide symporter (NIS), iodide uptake in FRTL5 cells (Rattus norvegicus, UniProt Q63008); experiment: Inhibition of iodide uptake in FRTL5 cells, non radioactive arsenic/cerium assay; type: cell-based
T1 construct: endogenous in cells; host or cells: FRTL5 (rat thyroid-derived cells)
T1 sequence (Q63008 1-618): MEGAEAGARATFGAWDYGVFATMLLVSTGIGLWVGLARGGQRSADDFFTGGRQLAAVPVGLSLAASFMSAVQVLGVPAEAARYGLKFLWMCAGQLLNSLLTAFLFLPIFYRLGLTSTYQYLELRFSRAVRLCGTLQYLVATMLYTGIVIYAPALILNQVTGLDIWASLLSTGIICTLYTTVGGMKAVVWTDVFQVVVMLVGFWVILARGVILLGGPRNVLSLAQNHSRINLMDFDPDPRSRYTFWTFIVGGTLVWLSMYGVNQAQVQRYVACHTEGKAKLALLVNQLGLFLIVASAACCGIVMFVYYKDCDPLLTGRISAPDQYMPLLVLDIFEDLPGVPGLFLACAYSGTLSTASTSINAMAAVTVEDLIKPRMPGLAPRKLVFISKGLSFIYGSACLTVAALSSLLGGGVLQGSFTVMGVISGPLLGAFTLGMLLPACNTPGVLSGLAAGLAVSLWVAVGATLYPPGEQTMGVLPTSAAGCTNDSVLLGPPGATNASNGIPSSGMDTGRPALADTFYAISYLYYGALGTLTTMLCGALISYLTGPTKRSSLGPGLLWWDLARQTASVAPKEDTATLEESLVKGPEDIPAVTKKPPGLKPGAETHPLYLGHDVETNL
Protocol: Some of the synthesized compounds were evaluated for their ability to inhibit iodide entrapment in FRTL5 cells. The IC50 values were measured in at least […] independent experiments.
The biological activity of each compound was determined in FRTL5 cells, using a non radioactive arsenic/cerium assay as described in F. Waltz et al., Anal. Biochem., 2012, 396, 91-95. Compound potency was expressed as IC50, the concentration of compound necessary to achieve 50% inhibition of iodide uptake. Briefly, to FRTL5 cells at 70-90% confluence was added compound (200 μM, 10 μM, 0.5 μM, 25 nM, 1.2 nM, 60 pM, […], and 0.15 pM final), followed by NaI (10 μM final). After 1 hour incubation at 20±1° C., supernatant was removed and the cells were immediately assayed for iodide content using the modified As/Ce Sandell-Kolthoff reaction. NaClO4 was tested in each microplate as assay controls. The IC50 values of all compounds were measured least thrice independently.
Stock solutions of tested compounds were prepared in DMSO (20 mM) and that of NaClO4 in water (20 mM). These stock solutions were stored at 4° C. for up to 2 months. Sample dilutions: the day of the assay, a daughter plate (clear flat-bottomed 96-well polystyrene microplates, Costar 9017) was prepared from 20 mM stock solutions. NaClO4 (column 2) and DHPM samples (columns 4 to 11) were diluted at 10× the final concentration in uptake buffer.
FRTL5 cells were cultured as described in F. S. Ambesi-Impiombato et al., Proc. Natl. Acad. Sci. USA, 1980, 77, 3455-3459. Briefly, FRTL5 cells were cultured in Coon's modified F12 medium supplemented with 5% heat-inactivated fetal bovine serum (Invitrogen), 2 mM L-glutamine, 100 U/mL penicillin, 0.1 mg/mL streptomycin, 10 μg/mL insulin, 10 nM hydrocortisone, 10 ng/mL Gly-His-Lys acetate, 1 mU/mL TSH, 5 μg/mL transferrin at 37° C. and 5% CO2. For iodide uptake assays, 200 μL of FRTL5 cells with density of 250,000 cells/mL were dispensed in each well of clear flat-bottomed 96-well polystyrene microplates (Costar 3628) using the Multidrop 384 (ThermoFisher Scientific), and further cultured until confluence reached 80-90% (3-4 days).
The culture medium of FRTL5 monolayer cells at 80-90% confluence was replaced by uptake buffer (20° C.) via continuous aspiration/dispense cycle (600 μL) using a 96-needle head plate washer PW 384 (Tecan). The 96-needle head was set to a vertical position such that 80 μL of fresh uptake buffer remained in each well at the end of the cycle. The samples (10 μL each) from the daughter plate were transferred all at once to the assay plate using the 96-tip head pipettor Liquidator 96 (Mettler Toledo). Immediately after, 10 μL of a NaI solution at 100 μM was added to each well of the assay plate using the Liquidator 96. The assay plate was left to stand in the dark at 20±1° C. for 60 min. The assay plate was then washed with cold (4° C.) uptake buffer using the PW 384 plate washer and residual supernatant was immediately discarded by inverting the assay plate on absorbent paper.
Sodium iodide standards (S1 to S7) and water (S0) were distributed in duplicate (100 μL each) in the first and last column of the assay plate. Water (100 μL) was added to the columns with the Multidrop 384. 100 μL of the ammonium cerium (IV) sulfate solution (10.5 mM) was distributed into the columns, followed by 100 μL of the sodium arsenite (III) solution (24 mM) using the Multidrop 384. The assay plate was left to stand at 20±1° C. for 30 min. The absorbance at 420 nm (Abs420) was immediately recorded on a SpectraMax Plus 384 (Molecular Devices). A calibration curve was prepared for each plate by plotting the logarithmic conversion of the means of Abs420 (n=2) vs iodide standard concentrations (S0 to S7). The iodide concentrations in the samples were determined after linear regression of the calibration curve.

[2] = Table 2, variations at R5, averaged from three or four independent experiments, NaI 10 μM, 1 hour, 20°C, read-out: IC50 (μM), inhibitory activity against iodide uptake in FRTL5 cells
[3] = Table 5, variations at Y, R1, R3, R4, R5, averaged from two to four independent experiments, NaI 10 μM, 1 hour, 20°C, read-out: IC50 (μM), inhibitory activity against iodide uptake in FRTL5 cells
[4] = Table 3, variations at R2, averaged from three or four independent experiments, NaI 10 μM, 1 hour, 20°C, read-out: IC50 (μM), inhibitory activity against iodide uptake in FRTL5 cells
[5] = Table 1, variations at R1, averaged from three or four independent experiments, NaI 10 μM, 1 hour, 20°C, read-out: IC50 (μM), inhibitory activity against iodide uptake in FRTL5 cells

Row | Structure (SMILES) | melting point [°C] | IC50 [1, 4] [nM] | also measured
1 | CC1=C(C(=O)OCc2ccc3c(c2)OCO3)C(c2ccccc2)NC(=O)N1 (centres unmarked) [Compound 38, Benzo[d][1,3]dioxol-5-ylmethyl 6-methyl-2-oxo-4-phenyl-1,2,3,4-tetrahydropyrimidine-5-carboxylate] | – | – | IC50 [1, 2]: 80 nM
2 | CC1=C(C(=O)OCc2ccccc2C)C(c2ccccc2)NC(=O)N1 (centres unmarked) [Compound 36, 2-Methylbenzyl 6-methyl-2-oxo-4-phenyl-1,2,3,4-tetrahydropyrimidine-5-carboxylate] | 157 to 159 | – | IC50 [1, 2]: 250 nM
3 | CC1=C(C(=O)OCc2ccc3c(c2)OCO3)C(c2ccco2)N(C)C(=O)N1C (centres unmarked) [Compound 61, benzo[d][1,3]dioxol-5-ylmethyl 4-(furan-2-yl)-1,3,6-trimethyl-2-oxo-1,2,3,4-tetrahydropyrimidine-5-carboxylate] | – | – | IC50 [1, 3]: 0.85 nM
4 | COc1ccc(COC(=O)C2=C(Cc3ccccc3)NC(=O)NC2c2ccccc2)cc1 (centres unmarked) [Compound 45, 4-Methoxybenzyl 6-benzyl-2-oxo-4-phenyl-1,2,3,4-tetrahydropyrimidine-5-carboxylate] | 140 to 142 | 250 | –
5 | COc1ccc(COC(=O)C2=C(COc3ccccc3)NC(=O)NC2c2ccccc2)cc1 (centres unmarked) [Compound 46, 4-Methoxybenzyl 2-oxo-6-phenoxymethyl-4-phenyl-1,2,3,4-tetrahydropyrimidine-5-carboxylate] | – | 500 | –
6 | CC1=C(C(=O)OCc2ccc3c(c2)OCO3)C(c2ccco2)NC(=O)N1C (centres unmarked) [Compound 60, Benzo[d][1,3]dioxol-5-ylmethyl 4-(furan-2-yl)-1,6-dimethyl-2-oxo-1,2,3,4-tetrahydropyrimidine-5-carboxylate] | 141 to 143 | – | IC50 [1, 3]: 73 nM
7 | COc1ccc(COC(=O)C2=C(C)NC(=O)NC2c2ccoc2)cc1 (centres unmarked) [Compound 28, 4-Methoxybenzyl 4-(furan-3-yl)-6-methyl-2-oxo-1,2,3,4-tetrahydropyrimidine-5-carboxylate] | 157 to 159 | – | IC50 [1, 5]: 20 nM
8 | COc1ccc(COC(=O)C2=C(C)NC(=O)NC2c2ccc(F)cc2)cc1 (centres unmarked) [Compound 25, 4-Methoxybenzyl 4-(4-fluorophenyl)-6-methyl-2-oxo-1,2,3,4-tetrahydropyrimidine-5-carboxylate] | 172 to 175 | – | IC50 [1, 5]: 150 nM
9 | CC1=C(C(=O)OCc2ccccc2)C(c2ccccc2)NC(=O)N1 (centres unmarked) [Compound 32, Benzyl 6-methyl-2-oxo-4-phenyl-1,2,3,4-tetrahydropyrimidine-5-carboxylate] | 174 to 175 | – | IC50 [1, 2]: 190 nM
10 | COc1ccc(COC(=O)C2=C(C)N(C)C(=O)NC2c2ccco2)cc1 (centres unmarked) [Compound 53, 4-Methoxybenzyl 4-(furan-2-yl)-1,6-dimethyl-2-oxo-1,2,3,4-tetrahydropyrimidine-5-carboxylate] | 112 to 113 | – | IC50 [1, 3]: 90 nM
11 | COc1ccc(COC(=O)C2=C(Cc3cccs3)NC(=O)NC2c2ccccc2)cc1 (centres unmarked) [Compound 49, 4-Methoxybenzyl 2-oxo-4-phenyl-6-(thiophen-2-ylmethyl)-1,2,3,4-tetrahydropyrimidine-5-carboxylate] | – | 150 | –
12 | CC1=C(C(=O)NCc2ccc3c(c2)OCO3)C(c2ccccc2)NC(=O)N1 (centres unmarked) [Compound 63, N-(benzo[d][1,3]dioxol-5-ylmethyl) 6-methyl-2-oxo-4-phenyl-1,2,3,4-tetrahydropyrimidine-5-carboxamide] | 235 to 237 | – | IC50 [1, 3]: 78 nM
13 | COc1ccc(COC(=O)C2=C(c3ccccc3)NC(=O)NC2c2ccccc2)cc1 (centres unmarked) [Compound 44, 4-Methoxybenzyl 4,6-diphenyl-2-oxo-1,2,3,4-tetrahydropyrimidine-5-carboxylate] | – | 950 | –
14 | COc1ccc(COC(=O)C2=C(C)N(C)C(=O)N(C)C2c2ccco2)cc1 (centres unmarked) [Compound 54, 4-methoxybenzyl 4-(furan-2-yl)-1,3,6-trimethyl-2-oxo-1,2,3,4-tetrahydropyrimidine-5-carboxylate] | – | – | IC50 [1, 3]: 1.6 nM
15 | CCCCCC1=C(C(=O)OCc2ccc(OC)cc2)C(c2ccccc2)NC(=O)N1 (centres unmarked) [Compound 42, 4-Methoxybenzyl 2-oxo-6-pentyl-4-phenyl-1,2,3,4-tetrahydropyrimidine-5-carboxylate] | – | 350 | –
16 | [O-][Cl+3]([O-])([O-])O [Sodium perchlorate, reference compound] | – | – | IC50 ([1]; assay control, read-out: IC50, iodide entrapment in FRTL5 cells, assay control): 100 nM
17 | COc1cccc(COC(=O)C2=C(C)N(C)C(=O)N(C)C2c2ccco2)c1 (centres unmarked) [Compound 57, 3-methoxybenzyl 4-(furan-2-yl)-1,3,6-trimethyl-2-oxo-1,2,3,4-tetrahydropyrimidine-5-carboxylate] | – | – | IC50 [1, 3]: 0.065 nM
18 | COc1cccc(COC(=O)C2=C(C)NC(=O)NC2c2ccccc2)c1 (centres unmarked) [Compound 37, 3-Methoxybenzyl 6-methyl-2-oxo-4-phenyl-1,2,3,4-tetrahydropyrimidine-5-carboxylate] | – | – | IC50 [1, 2]: 50 nM
19 | COc1ccc(COC(=O)C2=C(CC(C)C)NC(=O)NC2c2ccccc2)cc1 (centres unmarked) [Compound 41, 4-Methoxybenzyl 2-oxo-6-isobutyl-4-phenyl-1,2,3,4-tetrahydropyrimidine-5-carboxylate] | – | 550 | –
20 | COc1ccc(COC(=O)C2=C(C3CCCCC3)NC(=O)NC2c2ccccc2)cc1 (centres unmarked) [Compound 43, 4-Methoxybenzyl 6-cyclohexyl-2-oxo-4-phenyl-1,2,3,4-tetrahydropyrimidine-5-carboxylate] | – | 850 | –
21 | COc1ccc(COC(=O)C2=C(C)N(C)C(=O)N(C)C2c2ccccc2)cc1 (centres unmarked) [Compound 51, 4-Methoxybenzyl 1,3,6-trimethyl-2-oxo-4-phenyl-1,2,3,4-tetrahydropyrimidine-5-carboxylate] | – | – | IC50 ([1]; Table 4, variations at X, R3, R4, averaged from three or four independent experiments, NaI 10 μM, 1 hour, 20°C, read-out: IC50 (μM), inhibitory activity against iodide uptake in FRTL5 cells): 65 nM
